Measured values taken from ChEMBL document CHEMBL4028843, “Synthesis of both enantiomers of 1,2,3,4-tetrahydroisoquinoline derivative IPPAM-1 and enantio-dependency of its positive allosteric modulation of prostacyclin receptor” (Bioorg Med Chem Lett, 2017).

Target: Prostacyclin receptor (Homo sapiens) (UniProt P43119)
Assay: Positive allosteric modulation of human prostacyclin receptor expressed in CHOK1 cells assessed as increase in PGI2-induced cAMP production by measuring 2 fold leftward shift in PGI2 concentration response curve measured after 1 hr
Format: functional, cell-based

Sequence of Prostacyclin receptor (Homo sapiens) (P43119 whole entry): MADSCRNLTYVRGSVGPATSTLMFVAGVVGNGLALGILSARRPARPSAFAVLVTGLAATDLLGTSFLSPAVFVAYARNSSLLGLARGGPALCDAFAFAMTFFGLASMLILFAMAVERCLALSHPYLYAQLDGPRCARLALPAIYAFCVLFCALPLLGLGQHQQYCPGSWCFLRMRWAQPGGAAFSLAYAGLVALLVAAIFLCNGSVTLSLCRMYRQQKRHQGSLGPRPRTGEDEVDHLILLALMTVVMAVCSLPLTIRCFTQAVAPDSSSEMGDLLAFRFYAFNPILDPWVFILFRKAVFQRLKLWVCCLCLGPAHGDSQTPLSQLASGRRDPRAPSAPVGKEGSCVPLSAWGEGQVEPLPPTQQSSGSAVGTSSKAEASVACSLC

CC(C)(C)n1nnnc1[C@@H](c1ccccc1)N1CCc2ccccc2C1
Activity: 3.1 µM
